According to PubChem BioAssay AID330 (DTP/NCI, 2004):
“And” between values parts separate entries of the source, which are not always exact repeats. Identical values can stand only once. Inconclusive results and toxic doses are left out.

Tested on: P388 leukemia ip, CD2F1 mice, survival T/C
Assay: NCI In Vivo Anticancer Drug Screen. Data for tumor model P388 Leukemia (intraperitoneal) in CD2F1 (CDF1) mice
Details: endpoint: median survival time, higher = longer survival
Outline: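 Mice carrying the transplanted tumor received test compound or vehicle. Survival was recorded in each group, and the value is the treated-group measurement divided by that of the vehicle-treated control group.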

[1] = dose: 12.5 mg/kg/injection, schedule: Q01DX005 (ip), vehicle: saline with Tween-80
[2] = dose: 50.0 mg/kg/injection, schedule: Q01DX005 (ip), vehicle: saline with Tween-80
[3] = dose: 50.0 mg/kg/injection, schedule: Q01DX005 (ip), vehicle: Klucel (hydroxypropylcellulose) (HPC)
[4] = dose: 100.0 mg/kg/injection, schedule: Q01DX005 (ip), vehicle: Klucel (hydroxypropylcellulose) (HPC)
[5] = dose: 50.0 mg/kg/injection, schedule: Q01DX009 (ip), vehicle: saline with Tween-80

Cc1cc(NN)nc2n[nH]c(N)c12
T/C [1]: 105 % of control | T/C (dose: 25.0 mg/kg/injection, schedule: Q01DX005 (ip), vehicle: saline with Tween-80): 97 % of control | T/C [2]: 102 % of control and 112 % of control

O=[N+](N=c1ccn([O-])cc1)c1cc[n+]([O-])cc1
T/C (dose: 1.56 mg/kg/injection, schedule: Q01DX009 (ip), vehicle: DMSO): 107 % of control | T/C (dose: 3.0 mg/kg/injection, schedule: Q01DX009 (ip), vehicle: other): 107 % of control | T/C (dose: 3.12 mg/kg/injection, schedule: Q01DX009 (ip), vehicle: DMSO): 100 % of control | T/C (dose: 6.0 mg/kg/injection, schedule: Q01DX009 (ip), vehicle: other): 102 % of control | T/C (dose: 6.25 mg/kg/injection, schedule: Q01DX009 (ip), vehicle: DMSO): 107 % of control | T/C (dose: 12.5 mg/kg/injection, schedule: Q01DX009 (ip), vehicle: DMSO): 100 % of control | T/C (dose: 12.5 mg/kg/injection, schedule: Q01DX009 (ip), vehicle: other): 98 % of control | T/C (dose: 25.0 mg/kg/injection, schedule: Q01DX009 (ip), vehicle: DMSO): 100 % of control | T/C (dose: 25.0 mg/kg/injection, schedule: Q01DX009 (ip), vehicle: other): 109 % of control | T/C (dose: 50.0 mg/kg/injection, schedule: Q01DX009 (ip), vehicle: other): 109 % of control

CC(C)(C)C1CCS(=O)(=O)CC1.[Cl][Hg][Cl]
T/C (dose: 0.25 mg/kg/injection, schedule: Q01DX009 (ip), vehicle: saline): 109 % of control | T/C (dose: 0.5 mg/kg/injection, schedule: Q01DX009 (ip), vehicle: saline): 95 % of control | T/C (dose: 1.0 mg/kg/injection, schedule: Q01DX009 (ip), vehicle: saline): 90 % of control

CN=Nc1c(O)[nH]c2ccc(C)cc12
T/C (dose: 60.0 mg/kg/injection, schedule: Q01DX005 (ip), vehicle: saline with Tween-80): 96 % of control | T/C (dose: 120.0 mg/kg/injection, schedule: Q01DX005 (ip), vehicle: saline with Tween-80): 98 % of control | T/C (dose: 240.0 mg/kg/injection, schedule: Q01DX005 (ip), vehicle: saline with Tween-80): 92 % of control

CC1CCCC(C)N1CC#CCNC(=O)C1CCC(=O)N1 (configuration not stated)
T/C (dose: 25.0 mg/kg/injection, schedule: Q01DX005 (ip), vehicle: Klucel (hydroxypropylcellulose) (HPC)): 100 % of control | T/C [3]: 102 % of control | T/C [4]: 121 % of control

CCCCCCCCCCCC(=O)NN
T/C [5]: 95 % of control | T/C (dose: 100.0 mg/kg/injection, schedule: Q04DX003 (ip), vehicle: saline with Tween-80): 100 % of control | T/C (dose: 200.0 mg/kg/injection, schedule: Q04DX003 (ip), vehicle: saline with Tween-80): 100 % of control

[S-]c1n[n+](-c2ccccc2)c(-c2ccccc2)s1
T/C [5]: 100 % of control | T/C (dose: 100.0 mg/kg/injection, schedule: Q01DX009 (ip), vehicle: saline with Tween-80): 100 % of control | T/C (dose: 200.0 mg/kg/injection, schedule: Q01DX009 (ip), vehicle: saline with Tween-80): 93 % of control

COC(=O)C1=C(c2ccccc2)ON2C(C)(C)COC12C (configuration not stated)
T/C [3]: 106 % of control | T/C [4]: 106 % of control | T/C (dose: 200.0 mg/kg/injection, schedule: Q01DX005 (ip), vehicle: Klucel (hydroxypropylcellulose) (HPC)): 100 % of control

CC(NNC(=S)N(C)C1CCCCC1)c1cc2ccccc2cn1 (configuration not stated)
T/C (dose: 6.25 mg/kg/injection, schedule: Q01DX005 (ip), vehicle: saline with Tween-80): 107 % of control | T/C [1]: 120 % of control | T/C [2]: 151 % of control and 159 % of control

C=C1CC(C)OC1=O (configuration not stated)
T/C (dose: 100.0 mg/kg/injection, schedule: Q04DX002 (ip), vehicle: saline with Tween-80): 103 % of control | T/C (dose: 200.0 mg/kg/injection, schedule: Q04DX002 (ip), vehicle: saline with Tween-80): 111 % of control

Clc1ccc2nc3ccccc3c(SCCCCCCSc3c4ccccc4nc4ccc(Cl)cc34)c2c1
T/C (dose: 7.5 mg/kg/injection, schedule: Q01DX005 (ip), vehicle: Klucel (hydroxypropylcellulose) (HPC)): 103 % of control | T/C (dose: 15.0 mg/kg/injection, schedule: Q01DX005 (ip), vehicle: Klucel (hydroxypropylcellulose) (HPC)): 97 % of control | T/C (dose: 240.0 mg/kg/injection, schedule: Q01DX005 (ip), vehicle: Klucel (hydroxypropylcellulose) (HPC)): 89 % of control

CCCCCCCCCCCCCCC[N+]1([O-])CCCCC1
T/C (dose: 12.5 mg/kg/injection, schedule: Q01DX009 (ip), vehicle: saline): 101 % of control | T/C (dose: 25.0 mg/kg/injection, schedule: Q01DX009 (ip), vehicle: saline): 95 % of control | T/C (dose: 50.0 mg/kg/injection, schedule: Q01DX009 (ip), vehicle: saline): 99 % of control and 101 % of control
